Legend:
Type in all cases: cell-based
MADD [1] = assay: Phosphorylation of endogenous MADD in HeLa cells (anti-phospho antibodies); details: LY 10 μM 1 h, IGF-1 150 ng/ml 20 minutes
DR4 = assay: Association of exogenous MADD with DR4 in HEK293 cells (immunoprecipitation)
Experimental: (A) Phosphorylation status of MADD could influence its binding to DR4. HEK293 cells were transfected with wtMADD or MADD mutants. 36 h after transfection, the cells were harvested for immunoprecipitation using an anti-DR4 antibody followed by immunoblotting using an anti-YFP antibody to detect exogenous MADD. The membrane was reprobed with an anti-DR4 antibody to show the protein loading. (B) PI3K can influence the association of exogenous MADD with DR4. HEK293 cells were transfected with wtMADD. Twenty four hours after transfection, the cells were serum starved for 20 h. Further, they were treated with LY (10 μM) for 1 h, IGF-1 (150 ng/ml) for 20 minutes. Immunoprecipitation using an anti-DR4 antibody was followed by immunoblotting using anti-YFP or anti-DR4 antibody. (C) Akt can influence exogenous MADD association with DR4. HEK293 cells were co-transfected with wtMADD along with DN-Akt or the empty vector pcDNA3.1 (pcDNA). Thirty six hours after transfection, the cells were harvested for immunoprecipitation using anti-DR4 antibody followed by immunoblotting with an anti-YFP or an anti-DR4 antibody. (D) PI3K can influence the association of endogenous MADD with DR4. HeLa cells were serum starved for 20 h, then treated with LY (10 μM) for 1 h, IGF-1 (150 ng/ml) for 20 minutes. Immunoprecipitation using an anti-DR4 antibody was followed by immunoblotting with an anti-MADD or an anti-DR4 antibody. (E) Akt can influence the association of endogenous MADD with DR4. HeLa cells were transfected with DN-Akt or pcDNA. Thirty six hours after transfection, the cells were collected for immunoprecipitation using an anti-DR4 antibody followed by immunoblotting with an anti-MADD antibody.
MADD can bind to DR4 and thereby block the activation of the extrinsic apoptotic pathway. […] Stimulation of PI3K by IGF-1 increased, while inhibition by LY reduced, the association between wtMADD and DR4 (FIG. 15B). […] This interaction was reduced in the presence of LY (FIG. 15D) or DN-Akt (FIG. 15E).
Immunoprecipitation. Immunoprecipitations were performed using standard procedures. The samples were precleared with 10% (vol/vol) Protein-A agarose (Roche) for 1 h on a rocking platform. Specific antibodies were added and rocked for 1 h. Immunoprecipitates were captured by incubating with 10% (vol/vol) Protein-A agarose for an hour. The agarose beads were spun down and washed three times with NET/NP40 buffer (150 mM NaCl, 2 mM EDTA, 50 mM Tris-HCl pH 7.5, 0.1% NP-40). The antigens were released and denatured by adding SDS sample buffer. Immunoblots were prepared and analysed as described above.

MADD [2] = assay: Phosphorylation of exogenous wtMADD in HEK293 cells (anti-phospho antibodies); details: HEK293 transfected with wtMADD; LY 10 μM 1 h, IGF-1 150 ng/ml 20 minutes
Experimental: (A) In vitro phosphorylation of rMADD by Akt. GST-wtMADD or -MADD mutants were expressed in bacteria, purified, and then incubated with rAkt and γ[^32P] ATP. After 1 h incubation at 30° C., the products were resolved on SDS-PAGE and ^32P-labeled proteins were visualized by autoradiography. (B) MADD is labeled by [^32P]orthophosphate in vivo. HEK293 cells were transfected with wtMADD or MADD mutant constructs. Twenty-four hours after transfection cells were incubated with 0.3 mCi/ml [32P]orthophosphate for 6 h. MADD was immunoprecipitated with an anti-YFP antibody. The precipitated MADD was separated by SDS-PAGE, transferred to a nitrocellulose membrane, and subjected to autoradiography. Loaded MADD was visualized by staining the same membrane with an anti-YFP antibody. (C) HEK293 cells were transfected with cDNAs for wtMADD or MADD mutants and. 36 h later the cells were harvested for immunoblotting using the anti-phospho-S-70, -T-173 or -T-1041 antibodies. An anti-YFP antibody was used to detect exogenous MADD. (D) HEK293 cells were transfected with wtMADD and 24 hours later cells were serum starved for 20 h. Subsequently, they were treated with LY (10 μM) for 1 h and/or IGF-1 (150 ng/ml) for 20 minutes. The cell lysates were immunoblotted and probed with anti phospho-specific antibodies or an anti-YFP antibody. […]

Akt and MADD = assay: TRAIL treatment of HeLa cells: Akt and MADD phosphorylation, caspase-8 activation (immunoblot); details: TRAIL 50 ng/ml
Experimental: (A) TRAIL treatment reduces the levels of Akt and MADD phosphorylation, and leads to caspase-8 activation. Hela cells were treated with TRAIL (50 ng/ml). The phosphorylation level of Akt was analyzed by immunoblotting using an anti-phospho Akt antibody. The phosphorylation levels of MADD was analyzed by immunoblotting using the anti-phospho T1041 antibody. Caspase-8 activation was analyzed by immunoblotting using an anti-caspase-8 antibody. (B) TRAIL induces FADD-procaspase-8 binding depending upon MADD phosphorylation status. HeLa cells were transfected either with caAkt or pcDNA3.1 empty vector. Cells were treated with TRAIL for 1 h. The MADD phosphorylation was analyzed by immunoblotting using the anti-phospho T1041 antibody. The association of procaspase-8 and FADD was analyzed by immunoprecipitation using an anti-FADD antibody followed by immunoblotting using an anti-caspase-8 antibody. […] 24 h later cells were treated with TRAIL (50 ng/ml) for 4 hours and caspase-8 activity was analyzed. *p<0.05 vs TRAIL+caAkt. […] The localizations of phosphorylated and nonphosphorylated forms of MADD in the membrane and cytosolic fractions were analyzed by immunoblotting using the anti-phospho T1041 antibody. […] The Bax distribution in cytoplasm and HM was analyzed by immunoblotting using an anti-Bax antibody. […] The distributions of Bax in cytoplasm and HM were analyzed as described for (E). […]

For insulin-like growth factor-1 [IGF-1], the “Phosphorylation of endogenous MADD” value (MADD [1]) was “phosphorylated at all three sites”, the “Association of exogenous MADD with DR4” value (DR4) was “increased” and the “S70, T173 and T1041 phosphorylation levels of MADD” value (MADD [2]) was “increased”.

In the case of “tumor necrosis factor-related apoptosis-inducing ligand [TRAIL]”, the Caspase-8 activation (Akt and MADD) is reported as “concomitant activation of caspase-8” and the “Levels of phosphorylation of Akt and MADD” value (Akt and MADD) is reported as “reduced”.

Source: patent publication US7910723B2, “IG20 splice variants therapeutics for cancer” (The Board of Trustees of the University of Illinois, priority 2006, dated 2011)
